# Test results as given in patent publication US6770261B2, “Magnetic resonance imaging agents for the detection of physiological agents” (Research Corporation Technologies, priority 1995, dated 2004).
# Where two headings read alike, the source gives them in different places.
# How the values were obtained:
# [1] = Source text: FIG. 16 depicts the relaxivity of the CalGad complex as a function of calcium ion concentration.
# The effect of Ca2^+ on the relaxivity of the complex
# [2] = for T1: 0.4 mM
# Method: The effect of pH on the relaxivity of the complex
# The T1 of the Gd3^+-complex (0.4 mM in the buffer containing 100 mM KC1, 10 mM MOPS, 2 mM K2H2EGTA or 2 mM K2CaEGTA) was measured under different pH.
# [3] = for T1: 0.4 mM, 1 mM K2H2EGTA
# Method: The effect of Mg^2+ on the relaxivity of the complex
# The T1 of the Gd^3+-complex (0.4 mM in the buffer containing 132 mM KC1, 10 mM MOPS, 1 mM K2H2EGTA, pH 7.20) was measured.
# [4] = literature value used for comparison (Lauffer); cited from earlier work
# [5] = Relaxivity R by NMR spectroscopy at 500 MHz; type: physicochemical; design: unit not given here
# β-galactosidase [6] = biological target: T1, β-galactosidase (Escherichia coli, UniProt P00722)
# Text: Characterization: The ability of β-galactosidase to remove the galactopyranosal blocking group from GadGal was examined by HPLC. The cleavage reaction was monitored using the distinct retention times of the complex and the complex without the galactopyranose residue.
# β-galactosidase [7] = biological target: T1, β-galactosidase; conditions: for increase in signal (enhancement) in the presence of β-galactosidase: upon exposure to β-galactosidase
# Method: FIG. 9 depicts the change in T1 observed upon the β-galactosidase catalyzed cleavage of the galactopyranose residue (n=3). The first Column of each pair (1,3,5) represents the T1 of the galactose-DOTA complex and β-galactosidase mixture immediately after addition. The second column represents the T1 of the solution after a period of time in the presence of β-galactosidase. Each column is reported as a ratio to a control containing only the complex. Column 1 and 2: 2.0 mM Gd complex plus 1.7 uM β-galactosidase phosphate buffer (25 mM) pH 7.3. Column 3 and 4: 2.0 mM Gd plus 5.1 uM β-galactosidase phosphate buffer (25 mM) pH 7.3. Column 5 and 6: 2 mM Gd complex plus 5.1 uM heat inactivated β-galactosidase (10 minutes at 80 degrees) phosphate buffer (25 mM) pH 7.3. […] A minimal concentration of enzyme was used in these experiments to reduce potential effects of any contrast agent-enzyme interactions. T1 were carried out using a Bruker AMX 500 spectrometer at 26 degrees using a standard inversion-recovery sequence. The solution was placed in a 40 ul round bottomed NMR tube insert (Wilmad glass) and inserted into a tube containing d3-chloroform. A two dimensional data file was collected containing 16 different inversion delays with 8 scans each. The raw nmr data was processed (Felix, BIOSYM/Molecular Simulations, San Diego, Calif.) and the peak heights were fitted to an exponential rise to a max to obtain T1.
# The effect of the enzymatic cleavage of the galactopyranose on the T1 of the complex was assessed using NMR spectroscopy.
# The effect of the enzymatic cleavage of the galactopyranose unit from EGadMe and CarboxyMe on relaxation time T1 was determined by NMR spectroscopy at 500 MHz and 24° C. Various aqueous solutions of 0.5 mM EGadMe and CarboxyMe, respectively, were prepared, containing either: (a) no enzyme; (b) heat inactivated 5 μM β-galactosidase that was treated at 80° C. for 10 min; (c) 5 μM β-galactosidase where T1 was measured immediately after mixing; or (d) 5 μM β-galactosidase that was reacted with the complex for 3.5 days at 37° C.
# T1 sequence (P00722 2-1024): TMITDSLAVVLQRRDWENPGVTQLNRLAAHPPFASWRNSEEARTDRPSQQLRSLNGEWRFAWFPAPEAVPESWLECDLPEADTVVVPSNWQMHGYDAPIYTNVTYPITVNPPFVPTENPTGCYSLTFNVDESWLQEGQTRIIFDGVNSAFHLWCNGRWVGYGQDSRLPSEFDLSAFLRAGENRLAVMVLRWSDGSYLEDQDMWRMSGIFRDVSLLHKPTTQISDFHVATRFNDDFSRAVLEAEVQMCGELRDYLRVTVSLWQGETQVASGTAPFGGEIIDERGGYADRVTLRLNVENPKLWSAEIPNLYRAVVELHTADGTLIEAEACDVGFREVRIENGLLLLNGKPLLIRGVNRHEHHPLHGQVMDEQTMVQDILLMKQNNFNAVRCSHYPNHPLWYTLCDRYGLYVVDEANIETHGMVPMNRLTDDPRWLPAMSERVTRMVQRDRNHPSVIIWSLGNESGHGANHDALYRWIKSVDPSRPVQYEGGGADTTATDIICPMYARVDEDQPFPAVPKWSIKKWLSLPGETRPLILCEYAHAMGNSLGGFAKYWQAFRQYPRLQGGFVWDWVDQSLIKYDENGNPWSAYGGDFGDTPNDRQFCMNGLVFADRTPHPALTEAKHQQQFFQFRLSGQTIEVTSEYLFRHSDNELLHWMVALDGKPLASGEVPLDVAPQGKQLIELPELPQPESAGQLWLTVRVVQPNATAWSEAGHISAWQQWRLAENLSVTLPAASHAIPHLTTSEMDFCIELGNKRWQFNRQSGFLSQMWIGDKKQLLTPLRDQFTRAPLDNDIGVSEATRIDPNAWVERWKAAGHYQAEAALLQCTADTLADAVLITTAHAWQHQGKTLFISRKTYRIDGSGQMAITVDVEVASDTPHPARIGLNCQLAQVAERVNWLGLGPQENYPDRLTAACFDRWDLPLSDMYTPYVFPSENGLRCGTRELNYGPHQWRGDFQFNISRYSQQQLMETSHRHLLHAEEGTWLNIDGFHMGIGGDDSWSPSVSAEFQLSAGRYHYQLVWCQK
compound,measurement,setting,value
"O=C([O-])CN1CCN(CCCOc2cccc(OCCOc3cccc(OCCCN4CCN(CC(=O)[O-])CCN(CC(=O)[O-])CCN(CC(=O)[O-])CC4)c3N(CC(=O)O)CC(=O)O)c2N(CC(=O)O)CC(=O)O)CCN(CC(=O)[O-])CCN(CC(=O)[O-])CC1.[Gd+3].[Gd+3] [CalGad, Gd^3+-BAPTA-DO3A2]",relaxivity R,[1]; in the absence of Ca^2+,3.03 mM⁻¹ s⁻¹
same,relaxivity R,[1]; in the presence of Ca^2+,5.53 mM⁻¹ s⁻¹
same,T1,"[2]; 2 mM K2CaEGTA, pH 6.80",390 ms
same,T1,"[2]; 2 mM K2CaEGTA, pH 7.00",393 ms
same,T1,"[2]; 2 mM K2CaEGTA, pH 7.20",394 ms
same,T1,"[2]; 2 mM K2CaEGTA, pH 7.40",397 ms
same,T1,"[2]; 2 mM K2H2EGTA, pH 6.80",600 ms
same,T1,"[2]; 2 mM K2H2EGTA, pH 7.00",605 ms
same,T1,"[2]; 2 mM K2H2EGTA, pH 7.20",604 ms
same,T1,"[2]; 2 mM K2H2EGTA, pH 7.40",608 ms
same,effect of changing pH on the relaxivity,"[2]; pH 6.80 to 7.40, in the presence or absence of Ca^2+",minimum effects
same,T1,"[3]; pH 7.20, Mg^2+ 0 mM",607 ms
same,T1,"[3]; pH 7.20, Mg^2+ 1 mM",602 ms
same,T1,"[3]; pH 7.20, Mg^2+ 2 mM",601 ms
same,T1,"[3]; pH 7.20, Mg^2+ 5 mM",609 ms
same,T1,"[3]; pH 7.20, Mg^2+ 10 mM",607 ms
same,T1,"[3]; pH 7.20, Mg^2+ 20 mM",610 ms
same,effect of changing Mg^2+ concentration on the relaxivity,[3]; Mg^2+ 0 to 20 mM,minimum effects
O=C([O-])CN1CCN(CC(=O)[O-])CCN(CC(=O)O)CCN(CC(=O)[O-])CC1.[Gd+3] [Gd-DOTA],q (number of coordinating water molecules),[4],1.2
Do3a-hydroxyethyl-beta-galactose Gadolinium complex [GadGal],relaxivity R,[5],1800
same,cleavage of galactopyranose (HPLC traces),"β-galactosidase [6]; incubated with β-galactosidase for 7 days, phosphate buffer pH 7.3",greater than 95%
same,enzymatic processing of the complex (HPLC),β-galactosidase [6]; native vs heat-inactivated β-galactosidase,enzymatic processing of the complex by native but not heat-treated enzyme
same,difference between measured T1 values in the presence and absence of β-galactosidase,"β-galactosidase [7]; 2.0 mM Gd complex, 1.7 or 5.1 uM β-galactosidase, pH 7.3, 500 MHz",20%
same,change of solution T1 with heat inactivated enzyme,"β-galactosidase [7]; control, heat inactivated β-galactosidase",no decrease
same,increase in signal (enhancement) in the presence of β-galactosidase,β-galactosidase [7]; listed as Example 1 compound,roughly 20%
same,increase in signal (enhancement) in the presence of β-galactosidase,β-galactosidase [7]; listed as galactose-DOTA structure of Example 1,~20%
